According to patent US9572760B2, “Uses of compounds and mixtures from Antrodia cinnamomea mycelia” (Simpson Biotech Co., Ltd., priority 2013, dated 2017):

Key:
HSC [1] = test: HSC apoptosis by cell death detection ELISA; assay type: cell-based; settings: highest concentration (80 μM), 72 hours
Method: Apoptosis was detected with a sandwich immunoassay system using a cell death detection ELISA kit (Roche Diagnostic Inc.). Roche's Cell Death Detection ELISA kit qualitatively and quantitatively detects the amount of cleaved DNA/histone complexes (nucleosomes) in a given sample using a sandwich-enzyme-immunoassay-based method. The cells (1×10^4 cells/well) were seeded in 100 μl medium in a 96-well plate (Nunc, Denmark) and cultured for 24 h to allow the cells to attach and then treated with three different concentrations (8 μM, 24 μM and 80 μM) of either Compound A, B, C and D for 24 h, 48 h and 72 h and the plates were incubated in 37° C. After incubation, the 96 well plates were centrifuged for 10 min at 200×g and removed supernatant and discard, then added 200 μl of lysis buffer per well using multipipetman and incubated 30 min at room temperature, microplates were centrifuged the lysate at 200×g for 10 min. After the centrifuge, 20 μl of the supernatant was transferred into the streptavidin-coated microplate, then added 80 μl of immunoreagent to each well. The microplate was covered with an adhesive foil and incubated on a shaker under gentle shaking for 2 hour at room temperature. After the incubation period, microplates were washed three times with 250-300 μl incubation buffer and 100 μl ABTS solution was added and incubated for 30 min or until color is sufficient for photometric. ABTS Stop solution was added and absorbance of the samples was measured using ELISA reader at 405 nm, reference wavelength at 490 nm.

HSC [2] = test: HSC proliferation by BrdU assay; assay type: cell-based; settings: highest concentration (80 μM), 72 hours
Method: The Cell Proliferation ELISA, BrdU kit was designed to quantitate cell proliferation bases on the measurement of BrdU incorporation during DNA synthesis in proliferation cells. Briefly, cells (1×10^4 cells/well) were seeded in 100 μl medium in a 96-well plate (Nunc, Denmark) and cultured for 24 h to allow the cells to attach and then treated with three different concentrations ([…]) of either Compound A, B, C and D for 24 h, 48 h and 72 h and the plates were incubated in 37° C. After incubation, the culture medium was labeled with 10 μl/well BrdU (Roche Diagnostic Inc.), and the cells were reincubated for addition 16 h at 37° C. Labeling medium was removed using 10 min centrifuge at 200×g and blow dried. Cells were fixed using 200 μl FixDenat solution and incubated for 30 min at room temperature. Removing the FixDenat solution, 100 μl of anti-BrdU-POD was added and incubated for 90 min at room temperature. After the incubation period, microplates were washed three times with PBS buffer and 100 μl substrate solution was added and incubated for 30 min. Stop solution was added (25 μl of 1 M H2SO4) and absorbance of the samples was measured using ELISA reader at 450 nm.

tyrosinase = target: T1, tyrosinase (Mus musculus, UniProt P11344); test: Cellular tyrosinase activity assay (L-DOPA oxidation) in B16F10 cells exposed to UV; assay type: cell-based, murine; settings: UV alone 52.55±4.36% increase over non-UV control (3.0±0.5 U/mg protein)
T1 construct: endogenous in cells; host or cells: B16F10 murine melanoma cells (ATCC), total cell lysate
T1 sequence (P11344 19-533): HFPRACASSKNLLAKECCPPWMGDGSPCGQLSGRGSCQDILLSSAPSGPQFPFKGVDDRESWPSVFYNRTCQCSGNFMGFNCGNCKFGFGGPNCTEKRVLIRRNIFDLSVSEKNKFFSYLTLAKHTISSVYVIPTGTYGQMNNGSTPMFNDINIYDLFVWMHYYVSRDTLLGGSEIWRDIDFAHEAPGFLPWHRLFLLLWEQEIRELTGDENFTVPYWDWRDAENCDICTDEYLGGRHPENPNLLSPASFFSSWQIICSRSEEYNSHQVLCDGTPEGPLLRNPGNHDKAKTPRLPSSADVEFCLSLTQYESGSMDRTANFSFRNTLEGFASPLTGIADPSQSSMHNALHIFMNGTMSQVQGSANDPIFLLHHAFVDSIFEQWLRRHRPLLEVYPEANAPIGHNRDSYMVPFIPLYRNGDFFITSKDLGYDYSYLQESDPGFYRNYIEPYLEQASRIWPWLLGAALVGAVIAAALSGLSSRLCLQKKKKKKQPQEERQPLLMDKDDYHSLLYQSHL
From the text: (§1) The dermal fibroblast cell line CG1639 was obtained from the BCRC (Bioresource Collection and Research Center) and cultured in Dulbecco's modified Eagle media (DMEM, Gibco by Invitrogen) with 1% antibiotic antimycotic (Gibco by Invitrogen) and 15% fetal bovine serum (Gibco by Invitrogen). The fetal rat skin keratinocyte, FRSK cell line was obtained from the Japan HSRRB (Health Science Research Resources Bank) and cultured in Eagle's minimal essential media (MEM, Gibco by Invitrogen) supplemented with 10% fetal bovine serum (FBS) (Gibco by Invitrogen) and 1% antibiotic antimycotic (Gibco by Invitrogen). B16F10 cells, a murine melanoma cell line, were purchased from American Type Culture Collection (ATCC, Rockville, Md., USA) and was cultured in Eagle's Minimum Essential Medium (MEM; Sigma, St. Louis, Mo.) supplemented with 10% fetal bovine serum (FBS; HyClone Lab. Inc., Logan, Utah), 0.02% antibiotic-antimycotic liquid (penicillin, 10 000 U mL^−1; streptomycin, 10 000 μg mL^−1 and amphotericin B, 25 μg mL^−1; Invitrogen, Carlsbad, Calif.).
(§2) To investigate the induction of melanogenesis and the oxidative stress by direct UV irradiation, melanoma cells and keratocytes were irradiated with 8 J cm^−2 of UVA (FL15BLB, 352 nm, 15 W; Toshiba, Tokyo, Japan) and 10 mJ cm^−2 of UVB (G15T8E, 306 nm, 15 W; Sankyo Denki, Tokyo, Japan) in a HANKS' balanced salt solution (Sigma). The UV intensity was measured by using a Model UVX Digital Radiometer (UVP Inc., Upland, Calif.).
(§3) B16F10 and FRSK cells were exposed to Hepasim compounds A-D by two different concentrations (3 or 10 μM) for 72 hrs prior to UVA irradiation. DMEM was replaced with phosphate buffered saline (PBS) to avoid generation of medium-derived toxic photoproducts prior to UV irradiation. Cells were collected 24 hrs after UVA irradiation and assayed. For preparation of cell lysate, the harvested cells were pelleted by centrifugation and lysed in lysis buffer containing 50 mM Tris-HCl, 10 mM ethylene diaminetetraacetic acid (EDTA), 1% (v/v) Tri-ton X-100, phenylmethylsulfonyl fluoride (PMSF) (100 mg/ml) and pepstatin A (1 mg/ml) in DMSO and leupeptin (1 mg/ml) in H2O, pH 6.8. The cells were centrifuged at 10,000 rpm for 10 min and the total cell lysate was collected and stored at −80° C.
The rate of L-DOPA oxidation was measured to assess cellular tyrosinase activity in B16F10 cells exposed to UV. The assay was performed as below described, 20 mM L-DOPA used as the substrates was added to each lysate in a 96-well plate and absorbance of dopachrome formation was measured spectrophotometrically at 475 nm every 10 min for 1 h at 37° C. by a spectrophotometer. The tyrosinase activity was calculated by comparison to a standard curve using tyrosinase (2034 U/mg) and was expressed as unit/mg protein. The data are expressed as a percentage of the tyrosinase activity (unit/mg protein) of non-irradiated and untreated control cells (100%).

B16F10 cells = test: Melanin content in B16F10 cells after UV irradiation; assay type: cell-based, murine; settings: 10 μM for 72 hrs prior to UV irradiation; UV alone 33.80±4.6% increase over non-UV cells (7.4±0.3 μg/mg protein)
From the text: as §1, §2, §3
In order to measure the melanin contents, B16F10 cells were sonicated on ice and the mixture was centrifuged (25 000 g, 10 min, 4° C.). The supernatant was transferred, and pellets were dissolved in 0.85 N KOH at 60° C. for 20 min. Standard melanin (Sigma) was incubated in parallel. Spectrophotometric analysis of melanin content was then performed at an absorbance of 405 nm

SMILES	apoptosis of HSC (cell death detection assay) (HSC [1])	HSC proliferation (BrdU assay) (HSC [2])	tyrosinase activity in UV-irradiated B16F10 cells (tyrosinase; 3 μM) [%]	tyrosinase activity in UV-irradiated B16F10 cells (tyrosinase; 10 μM) [%]	melanin production in UV-irradiated B16F10 cells (B16F10 cells) [%]
CC(C)=CCOc1ccc([C@H]2C(=O)N(O)C(=O)[C@@H]2CC(C)C)cc1 (relative stereo) [Compound D, (3R*,4S*)-1-hydroxy-3-isobutyl-4-[4-(3-methyl-2-butenyloxy)phenyl]pyrrolidine-2,5-dione]	same but delayed	same but delayed	38.5±4.5	29.25±2.6	26.32±2.3
CC(C)=CCOc1ccc(C2=C(CC(C)C)C(=O)OC2=O)cc1 [Compound A, 3-isobutyl-4-[4-(3-methyl-2-butenyloxy)phenyl]furan-2,5-dione]	–	–	43.50±3.5	26.75±2.3	23.25±5.5
